Results as given in ChEMBL document CHEMBL6092213, “Rational Exploration of 2,4-Diaminopyrimidines as DHFR Inhibitors Active against Mycobacterium abscessus and Mycobacterium avium, Two Emerging Human Pathogens” (J Med Chem, 2024).
In brackets after ≈: the same amount, converted by molar mass.

Columns and labels:
[1] = system: Mycobacteroides abscessus; experiment: Antibacterial activity against Mycobacterium abscessus ATCC 19977 incubated for 2 days by resazurin microtiter assay; type: functional; settings: ATCC 19977, 48 h, time 2 day
[2] = Inhibition of Mycobacterium abscessus DHFR using 7, 8 dihydrofolate as substrate incubated for 1 hr by plate reader assay; parameters: species or system Mycobacteroides abscessus
Dihydrofolate reductase = target: T1, Dihydrofolate reductase (Homo sapiens, UniProt P00374); experiment: Inhibition of human DHFR using 7, 8 dihydrofolate as substrate incubated for 1 hr by plate reader assay; type: toxicity
T1 sequence (P00374 whole entry): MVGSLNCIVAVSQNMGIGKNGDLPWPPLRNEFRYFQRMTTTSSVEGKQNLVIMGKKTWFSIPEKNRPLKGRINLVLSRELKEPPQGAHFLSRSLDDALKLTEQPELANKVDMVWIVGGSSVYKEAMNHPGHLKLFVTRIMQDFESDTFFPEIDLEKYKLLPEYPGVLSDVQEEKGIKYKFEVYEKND

[3] = Inhibition of Mycobacterium avium DHFR using 7, 8 dihydrofolate as substrate incubated for 1 hr by plate reader assay
[4] = Metabolic stability in human hepatocytes assessed as intrinsic clearance at 0.5 uM measured upto 120 mins in presence of NADPH by UPLC-MS/MS analysis; type: ADME, cell-based, Hepatocyte; settings: 2 h
[5] = Metabolic stability in human liver microsomes assessed as intrinsic clearance at 0.5 uM measured upto 30 mins in presence of NADPH by UPLC-MS/MS analysis; type: ADME, Microsome; settings: 0.5 h
[6] = Apparent permeability in MDCK-II cells incubated for 1 hr by LC-MS/MS method; type: ADME, cell-based, Canis lupus familiaris; settings: dog
[7] = Solubility of compound in PBS at pH 7.4 incubated for 24 hrs by UPLC analysis; type: physicochemical; settings: for solubility: buffer, pH 7.4, 24 h
[8] = Metabolic stability in mouse hepatocytes assessed as intrinsic clearance at 0.5 uM measured upto 120 mins in presence of NADPH by UPLC-MS/MS analysis; type: ADME, cell-based, Hepatocyte; settings: 2 h
[9] = Observed volume of distribution at steady state in BALB/c mouse at 1 mg/kg, iv measured upto 24 hrs by UPLC/MS-MS analysis; type: ADME, organism-based; settings: in vivo
[10] = AUClast in BALB/c mouse at 1 mg/kg, iv measured upto 24 hrs by UPLC/MS-MS analysis; type: ADME, organism-based; settings: in vivo
[11] = Tmax in BALB/c mouse at 3 mg/kg, po measured upto 24 hrs by UPLC/MS-MS analysis; type: ADME, organism-based; settings: in vivo
[12] = Extrapolated AUC in BALB/c mouse at 1 mg/kg, iv measured upto 24 hrs by UPLC/MS-MS analysis; type: ADME, organism-based; settings: in vivo
[13] = Lipophilicity, logP of compound; type: physicochemical; settings: octanol/water
HepG2 = experiment: Cytotoxicity against human HepG2 cells assessed as viable cells at 100 uM incubated for 72 hrs by resazurin dye based plate reader assay; type: toxicity, cell-based; settings: hepg2, 72 h
[14] = Cmax in BALB/c mouse at 3 mg/kg, po measured upto 24 hrs by UPLC/MS-MS analysis; type: ADME, organism-based; settings: in vivo
[15] = AUClast in BALB/c mouse at 3 mg/kg, po measured upto 24 hrs by UPLC/MS-MS analysis; type: ADME, organism-based; settings: in vivo
[16] = Oral bioavailability in BALB/c mouse at 3 mg/kg measured upto 24 hrs by UPLC/MS-MS analysis; type: ADME, organism-based; settings: in vivo
[17] = AUCinfinity in BALB/c mouse at 1 mg/kg, iv measured upto 24 hrs by UPLC/MS-MS analysis; type: ADME, organism-based; settings: in vivo
[18] = Half-life in BALB/c mouse at 1 mg/kg, iv measured upto 24 hrs by UPLC/MS-MS analysis; type: ADME, organism-based; settings: in vivo
[19] = Observed clearance in BALB/c mouse at 1 mg/kg, iv measured upto 24 hrs by UPLC/MS-MS analysis; type: ADME, organism-based; settings: in vivo
[20] = Unbound fraction in mouse plasma; type: ADME, cell-free
[21] = Volume of distribution in mouse; type: ADME, organism-based; settings: in vivo
[22] = Clearance in mouse; type: ADME, organism-based; settings: in vivo
[23] = Half-life in mouse; type: ADME, organism-based; settings: in vivo

Compound	MIC [1] [µg/mL]	IC50 [2] [nM]	IC50 (Dihydrofolate reductase) [nM]	IC50 [3] [nM]	other results
NCC[C@H](O)C(=O)N[C@@H]1C[C@H](N)[C@@H](O[C@H]2O[C@H](CN)[C@@H](O)[C@H](O)[C@H]2O)[C@H](O)[C@H]1O[C@H]1O[C@H](CO)[C@@H](O)[C@H](N)[C@H]1O [AMIKACIN]	1.7 (≈ 2.9 µM)				
Nc1nc(N)c(OCCCOc2ccccc2CCC(=O)O)c(-c2ccncc2)n1	0.6 (≈ 1.47 µM)	77	> 5000	17	
COc1nc(N)nc(N)c1OCCCOc1ccccc1CCC(=O)O		> 5000	> 5000	> 5000	
Nc1nc(N)c(OCCCOc2ccccc2CCC(=O)O)c(-c2ccccc2)n1	0.3 (≈ 0.734 µM)	17	> 5000	7	intrinsic clearance [4]: < 0.66 mL/min/g; intrinsic clearance [5]: 0.43 mL/min/g; Papp [6]: 5.4 ×10⁻⁶ cm/s; solubility at 24 h ([7]; PBS, pH 7.4): 52 µM (≈ 21.2 µg/mL); CLH [8]: 2.2 mL/min/g
Nc1nc(N)c(OCCCOc2ccccc2CCC(=O)O)c(-c2ccccc2C(F)(F)F)n1	3.6 (≈ 7.56 µM)	42	> 5000	28	
Nc1nc(N)c(OCCCOc2ccccc2CCC(=O)O)c(C2CCCCC2)n1	0.1 (≈ 0.241 µM)	1.1	2100	6.3	Vdss [9]: 0.9 L/kg; AUClast [10]: 40507 ng·min/mL; Tmax [11]: 30 min; %AUCextra [12]: 5%; logP [13]: 3.6; intrinsic clearance [4]: < 0.66 mL/min/g; Activity (HepG2): > 60%; Cmax [14]: 279 ng/mL; intrinsic clearance [5]: 0.54 mL/min/g; Papp [6]: 3.2 ×10⁻⁶ cm/s; AUClast [15]: 49232 ng·min/mL; F [16]: 41%; AUC [17]: 42750 ng·min/mL; solubility [7]: 43 µM (≈ 17.8 µg/mL); CLH [8]: 2.2 mL/min/g; t1/2 [18]: 30 min; clearance [19]: 23 mL/min/kg; Fu [20]: ~ 0.02
Nc1nc(N)c(OCCCOc2ccccc2CCC(=O)O)c(C2CCNCC2)n1	6.2 (≈ 14.9 µM)	30	> 5000	63	
CCCc1nc(N)nc(N)c1OCCCOc1ccccc1CCC(=O)O		0.86	7.2	3.8	
COc1cccc(-c2nc(N)nc(N)c2OCCCOc2ccccc2CCC(=O)O)c1	5.6 (≈ 12.8 µM)	13	> 5000	60	
CCCOc1nc(N)nc(N)c1OCCCOc1ccccc1CCC(=O)O		> 5000	> 5000	> 5000	
Nc1nc(N)c(OCCCOc2ccccc2CCC(=O)O)c(CCCCO)n1	0.1 (≈ 0.247 µM)	4.9	460	5	intrinsic clearance [4]: < 0.66 mL/min/g; intrinsic clearance [5]: < 0.4 mL/min/g; Papp [6]: 0.8 ×10⁻⁶ cm/s; solubility [7]: 227 µM (≈ 91.8 µg/mL); CLH [8]: < 0.76 mL/min/g
Nc1ncc(OCCCOc2ccccc2CCC(=O)O)c(N)n1		990	9700	220	
COc1ccc(-c2nc(N)nc(N)c2OCCCOc2ccccc2CCC(=O)O)cc1	0.2 (≈ 0.456 µM)	17	700	5.2	intrinsic clearance [4]: < 0.66 mL/min/g; intrinsic clearance [5]: < 0.4 mL/min/g; Papp [6]: 4.1 ×10⁻⁶ cm/s; solubility [7]: 67 µM (≈ 29.4 µg/mL); CLH [8]: 0.59 mL/min/g
Nc1nc(N)c(OCCCOc2ccccc2CCC(=O)O)c(-c2cccc(C(F)(F)F)c2)n1		320	> 5000	1900	
NCCCc1nc(N)nc(N)c1OCCCOc1ccccc1CCC(=O)O	12.9 (≈ 33.1 µM)	45	> 5000	240	
CCc1nc(N)nc(N)c1OCCCOc1ccccc1CCC(=O)O	10.1 (≈ 28 µM)	0.8	120	4.3	Vd [21]: 2.5 L/kg; intrinsic clearance [4]: < 0.66 mL/min/g; intrinsic clearance [5]: < 0.4 mL/min/g; Papp [6]: 3 ×10⁻⁶ cm/s; solubility [7]: 233 µM (≈ 84 µg/mL); CLH [8]: < 0.76 mL/min/g; clearance [22]: 43.6 mL/min/kg; half-life [23]: 39 min
COc1ccccc1-c1nc(N)nc(N)c1OCCCOc1ccccc1CCC(=O)O		210	> 5000	210	
CCCCOc1nc(N)nc(N)c1OCCCOc1ccccc1CCC(=O)O		> 5000	> 5000	> 5000	
CCCCCc1nc(N)nc(N)c1OCCCOc1ccccc1CCC(=O)O	0.6 (≈ 1.49 µM)	8.3	430	4.5	
